Experimental data reported in patent publication US20200289474A1, “METHODS OF TREATING PAIN WITH A THIAZOLINE ANTI-HYPERALGESIC” (priority 2019, published 2020).

Assays:
[1] = rat 7-day repeat dose PO study (toxicokinetics)
[2] = dog pharmacokinetics, single PO (10 mg/kg) and IV (3 mg/kg) dose; assay type: in vivo
Protocol: The objective of the first single dose non-GLP study in dogs was to determine the pharmacokinetics and bioavailability of Compound 1 after a single oral (gavage) or single intravenous (IV) dose in dogs. The test article formulation was administered to three male dogs orally via gavage at a dose level of 10 mg/kg (dosing volume of 2 mL/kg body weight). Following a wash-out period of a minimum of three days, the same three dogs were administered the test article formulation via an IV bolus push over approximately 1-2 minutes at a dose level of 3 mg/kg (dosing volume of 0.5 mL/kg). The vehicle for oral gavage dosing was 0.5% HPMC; the vehicle for IV injection was sterile phosphate buffered saline (PBS; pH 7.4). […] Animals were returned to quarantine after the last blood collection.

[3] = rat 28-day GLP repeat dose PO study (toxicokinetics); assay type: in vivo
Protocol: A 28-day GLP repeat dose study with Compound 1 in rats was conducted with oral gavage doses of 0, 500, 1000 or 2000 mg/kg/day at a dosing volume of 10 mL/kg. The vehicle was 0.5% HPMC. There were 15 rats/sex in the control and high dose groups (5/sex for a 14-day recovery period) while the low and mid doses consisted of 10 rats/sex. Satellite groups of rats/sex/group for toxicokinetics were included.
Rats in Group 1 (Vehicle Control) were bled once at approximately 1 hour post-dose on those days.

stability in plasma = assay type: in vitro ADME; conditions: human plasma
[4] = effect of food on oral bioavailability in rats; assay type: in vivo, rat
Protocol: The effect of food on oral bioavailability was determined.

[5] = rat brain distribution study; assay type: in vivo
Text: A rat brain distribution study performed in order to determine standard pharmacokinetic parameters and to assess the brain penetration properties of Compound 1 administered orally and intravenously. […] The compound distributed readily in tissues with a steady-state volume of distribution of 1.7 L/kg.

[6] = male dogs, 10 mg/kg oral gavage
[7] = female, rat, in vivo, po, 500 mg/kg
[8] = rat 28-day PO, Day 1, F, 1000 mg/kg
[9] = rat 28-day PO, Day 1, F, 2000 mg/kg
[10] = rat 28-day PO, Day 1, M, 500 mg/kg
[11] = rat 28-day PO, Day 1, M, 1000 mg/kg
[12] = rat 28-day PO, Day 1, M, 2000 mg/kg
[13] = rat 28-day PO, Day 14, F, 500 mg/kg
[14] = rat 28-day PO, Day 14, F, 1000 mg/kg
[15] = rat 28-day PO, Day 14, F, 2000 mg/kg
[16] = rat 28-day PO, Day 14, M, 500 mg/kg
[17] = rat 28-day PO, Day 14, M, 1000 mg/kg
[18] = rat 28-day PO, Day 14, M, 2000 mg/kg
[19] = rat 28-day PO, Day 28, F, 500 mg/kg
[20] = rat 28-day PO, Day 28, F, 1000 mg/kg
[21] = rat 28-day PO, Day 28, F, 2000 mg/kg
[22] = rat 28-day PO, Day 28, M, 500 mg/kg
[23] = rat 28-day PO, Day 28, M, 1000 mg/kg
[24] = rat 28-day PO, Day 28, M, 2000 mg/kg

SMILES: CC1(C)SC(Nc2ccccc2O)=N[C@@H]1C(=O)O.Cl [Compound 1, (R)-2-(2-hydroxyphenylamino)-5,5-dimethyl-4,5-dihydrothiazole-4-carboxylic acid mono-hydrochloride]
- MTD ([1]; female rats, oral gavage, 7 days): 2000 mg/kg
- Cmax ([1]; rat 7 Day PO, 2000 mg/kg, Seventh Daily Dose, mean): 119 µg/mL
- epimerization in vivo (chiral column) ([2]; dog plasma): did not provide any evidence of epimerization
- half-life ([2]; dog, plasma, male dogs, 10 mg/kg oral gavage, read-out: median t1/2 (converted)): 1.4 h
- tmax ([2]; male dogs, 3 mg/kg IV bolus): about 5 minutes
- average oral Cmax [2, 6]: 12 µg/mL
- tmax [2, 6]: about 1 hour
- mean oral bioavailability ([2]; male dogs, 10 mg/kg oral vs 3 mg/kg IV): 72%
- Cmax at 28 days ([3]; both sexes, in vivo, po, rat 28-day pivotal study, at some doses): > 100 µg/mL
- Tmax at 28 days ([3]; both sexes, in vivo, po, rat 28-day study (summary)): ≤ 1 h
- CL/F at 28 days ([3]; both sexes, in vivo, rat 28-day PO, read-out: overall mean CL/F (converted)): 35.2 mL/min/kg
- half-life at 28 days ([3]; both sexes, in vivo, rat 28-day PO, read-out: overall mean t1/2 (converted)): 4.24 h
- half-life ([3]; both sexes, rat, in vivo, po): 3 to 8 h
- overall mean V/F ([3]; both, rat, in vivo, po, 28 days): 12.5 L/kg
- AUC [3, 7]: 298 µg·h/mL
- AUC(0-inf) [3, 7]: 299 µg·h/mL
- CL/F [3, 7]: 27.8 mL/min/kg
- Cmax [3, 7]: 74.8 µg/mL
- Vd/F [3, 7]: 8.1 L/kg
- half-life [3, 7]: 3.36 h
- tmax [3, 7]: 2 h
- half-life ([3]; female, rat, in vivo, po, 2000 mg/kg): 8.05 h
- CL/F ([3]; male, rat, in vivo, po, 1000 mg/kg): 38.7 mL/min/kg
- CL/F ([3]; male, rat, in vivo, po, 2000 mg/kg): 35.3 mL/min/kg
- AUCINF [3, 8]: 794 µg·h/mL
- AUCTAU [3, 8]: 788 µg·h/mL
- CL/F (CLz/F) [3, 8]: 21 mL/min/kg
- Cmax [3, 8]: 108 µg/mL
- t1/2 [3, 8]: 3.39 h
- AUCINF [3, 9]: 1324 µg·h/mL
- AUCTAU [3, 9]: 1161 µg·h/mL
- CL/F (CLz/F) [3, 9]: 25.2 mL/min/kg
- Cmax [3, 9]: 118 µg/mL
- AUCINF [3, 10]: 275 µg·h/mL
- AUCTAU [3, 10]: 270 µg·h/mL
- CL/F (CLz/F) [3, 10]: 30.3 mL/min/kg
- Cmax [3, 10]: 55.1 µg/mL
- t1/2 [3, 10]: 4.18 h
- AUCINF [3, 11]: 460 µg·h/mL
- AUCTAU [3, 11]: 456 µg·h/mL
- CL/F (CLz/F) [3, 11]: 36.2 mL/min/kg
- Cmax [3, 11]: 52.7 µg/mL
- t1/2 [3, 11]: 3.46 h
- AUCINF [3, 12]: 771 µg·h/mL
- AUCTAU [3, 12]: 768 µg·h/mL
- CL/F (CLz/F) [3, 12]: 43.2 mL/min/kg
- Cmax [3, 12]: 83.1 µg/mL
- t1/2 [3, 12]: 2.81 h
- AUCINF [3, 13]: 225 µg·h/mL
- AUCTAU [3, 13]: 223 µg·h/mL
- CL/F (CLss/F) [3, 13]: 37.5 mL/min/kg
- Cmax [3, 13]: 75.0 µg/mL
- t1/2 [3, 13]: 4.20 h
- AUCINF [3, 14]: 437 µg·h/mL
- AUCTAU [3, 14]: 430 µg·h/mL
- CL/F (CLss/F) [3, 14]: 38.7 mL/min/kg
- Cmax [3, 14]: 96.3 µg/mL
- t1/2 [3, 14]: 4.19 h
- AUCINF [3, 15]: 952 µg·h/mL
- AUCTAU [3, 15]: 942 µg·h/mL
- CL/F (CLss/F) [3, 15]: 35.3 mL/min/kg
- Cmax [3, 15]: 127 µg/mL
- t1/2 [3, 15]: 3.56 h
- AUCINF [3, 16]: 258 µg·h/mL
- AUCTAU [3, 16]: 244 µg·h/mL
- CL/F (CLss/F) [3, 16]: 34.2 mL/min/kg
- Cmax [3, 16]: 45.8 µg/mL
- t1/2 [3, 16]: 6.27 h
- AUCINF [3, 17]: 296 µg·h/mL
- AUCTAU [3, 17]: 293 µg·h/mL
- Cmax [3, 17]: 51.9 µg/mL
- t1/2 [3, 17]: 3.68 h
- AUCINF [3, 18]: 709 µg·h/mL
- AUCTAU [3, 18]: 701 µg·h/mL
- Cmax [3, 18]: 75.6 µg/mL
- t1/2 [3, 18]: 3.66 h
- AUCINF [3, 19]: 303 µg·h/mL
- AUCTAU [3, 19]: 297 µg·h/mL
- CL/F (CLss/F) [3, 19]: 28 mL/min/kg
- Cmax [3, 19]: 86.4 µg/mL
- t1/2 [3, 19]: 4.62 h
- tmax [3, 19]: 0.5 h
- AUCINF [3, 20]: 741 µg·h/mL
- AUCTAU [3, 20]: 736 µg·h/mL
- CL/F (CLss/F) [3, 20]: 22.7 mL/min/kg
- Cmax [3, 20]: 128 µg/mL
- t1/2 [3, 20]: 3.20 h
- AUCINF [3, 21]: 1327 µg·h/mL
- AUCTAU [3, 21]: 1305 µg·h/mL
- CL/F (CLss/F) [3, 21]: 25.5 mL/min/kg
- Cmax [3, 21]: 139 µg/mL
- t1/2 [3, 21]: 3.93 h
- tmax [3, 21]: 0.5 h
- AUCINF [3, 22]: 333 µg·h/mL
- AUCTAU [3, 22]: 305 µg·h/mL
- CL/F (CLss/F) [3, 22]: 27.3 mL/min/kg
- Cmax [3, 22]: 48.6 µg/mL
- t1/2 [3, 22]: 6.90 h
- AUCINF [3, 23]: 337 µg·h/mL
- AUCTAU [3, 23]: 334 µg·h/mL
- CL/F (CLss/F) [3, 23]: 49.8 mL/min/kg
- Cmax [3, 23]: 47.9 µg/mL
- t1/2 [3, 23]: 3.31 h
- AUCINF [3, 24]: 731 µg·h/mL
- AUCTAU [3, 24]: 724 µg·h/mL
- CL/F (CLss/F) [3, 24]: 46 mL/min/kg
- Cmax [3, 24]: 83.6 µg/mL
- t1/2 [3, 24]: 3.53 h
- stability in plasma (stability in plasma): stable
- peak plasma concentrations, fasted compared to fed ([4]; 10 mg/kg oral): significantly increased peak plasma concentrations
- differences in pharmacokinetic properties, fed vs fasted ([4]; 100 mg/kg oral): No statistically significant differences
- peak plasma concentration ([5]; rat, in vivo, po, 30 mg/kg): 9 µg/mL
- time to peak plasma concentration ([5]; rat, in vivo, po, 30 mg/kg): ≤ 1 h
- steady-state volume of distribution ([5]; rats): 1.7 L/kg
- oral bioavailability ([5]; rats, 30 mg/kg oral dose): 111%
- terminal half-life ([5]; rats, 30 mg/kg oral dose): 1.6 h
- brain-to-plasma concentration ratio ([5]; rats, 1 h after IV administration): 0.02
